Results reported in PubChem BioAssay (NCI).
Values joined by “and” are separate entries in the source; they are usually repeats but may differ in a detail not shown here. Equal entries are not always repeated.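 These data come from cells grown in 96-well plates and exposed to compound for 48 hours at five concentrations. Here, GI50 denotes the concentration required for 50% inhibition of growth. TGI: total growth inhibition.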

Assays:
Test in all cases: NCI tumour cell line growth inhibition, 48 h
[1] = test system: DMS 114 small cell lung
[2] = test system: HOP-18 NSCLC
[3] = test system: KM20L2 colon
[4] = test system: M19-MEL melanoma
[5] = test system: RXF-631 renal
[6] = test system: SNB-78 CNS
[7] = test system: XF 498 CNS
[8] = test system: DMS 273 small cell lung
[9] = test system: MDA-N
[10] = test system: P388/ADR leukemia
[11] = test system: SN12K1 renal

SMILES	TGI [1]	TGI [2]	TGI [3]	TGI [4]	TGI [6]	TGI [7]	TGI [8]	TGI [9]	also measured
COc1ccc(NC(=O)CC(=O)N/N=C/c2ccc(N(CCC#N)S(=O)(=O)c3ccccc3)cc2)cc1	> 100 µM	> 100 µM	> 100 µM	> 100 µM	> 100 µM	> 100 µM	–	–	TGI [5]: > 100 µM
COc1ccc(C(=O)C(C(=O)C(=O)Nc2nccs2)c2ccc(OC)cc2)cc1 (stereo not given)	> 100 µM	> 100 µM	> 100 µM	–	> 100 µM	> 100 µM	> 100 µM	–	–
COc1cc2c([C@@H](OC(=O)c3ccccc3)c3ccc4c(c3)OCO4)nccc2c(OC)c1OC	84.1 µM	> 100 µM	> 100 µM	> 100 µM	> 100 µM	90.9 µM	> 100 µM	–	TGI [5]: > 100 µM
CCCCN(CCCC)C(=O)C(=O)C(C)C(=O)CC (stereo not given)	–	–	> 100 µM	–	> 100 µM	> 100 µM	> 100 µM	–	–
O=S(=O)(O)/C(=C\c1ccccc1)c1ccccc1 (tested in a mixture with another compound)	–	–	–	–	–	–	–	> 100 µM	–
Cc1cccc(C)c1NC(=O)CCC(=O)NC(N)=S	–	> 100 µM	> 100 µM	> 100 µM	–	–	–	–	–
CC(O)(CNS(=O)(=O)c1ccccc1)c1ccccc1 (stereo not given)	–	–	–	–	–	–	–	> 100 µM	–
NCCP(=O)(O)O	–	–	–	–	–	–	–	> 100 µM	–
Cc1[nH]nc2c1C(=O)C=C(N(CCO)c1ccccc1)C2=O	> 100 µM	> 100 µM	–	> 100 µM	> 100 µM	–	> 100 µM	–	–
O=C(O)c1cscc1Cc1cccs1	–	–	–	–	–	–	–	> 100 µM	–
N#CC(C(=N/NC(N)=S)/C(=N/NC(N)=S)C(C#N)c1ccc(Cl)cc1)c1ccc(Cl)cc1 (stereo not given)	> 100 µM	> 100 µM	> 100 µM	> 100 µM	> 100 µM	> 100 µM	> 100 µM	–	–
CCc1cccc(C(C)CC)c1NC(=O)C(=O)C(CC(=O)Nc1ccc(Cl)c(Cl)c1)C(=O)OC (stereo not given)	> 100 µM	–	> 100 µM	> 100 µM	> 100 µM	–	55.9 µM	–	–
Cc1nc(Nc2ccccc2)sc1C(=O)NNc1ccc([N+](=O)[O-])cc1[N+](=O)[O-]	65.8 µM	> 100 µM	> 100 µM	> 100 µM	> 100 µM	55.3 µM	> 100 µM	–	–
CCOc1ccc2ccc3cccnc3c2n1	–	–	–	–	–	–	–	> 100 µM	–
O=C1C(=O)c2ccccc2C(O)=C1CC=C(Cl)Cl	51.7 µM and 70.5 µM	148 µM	200 µM	25.9 µM and 93.8 µM	55.7 µM and 204 µM	49.2 µM and 131 µM	75.8 µM	34.9 µM and 172 µM	GI50 [1]: 14.5 µM; GI50 [3]: 7.04 µM; GI50 [4]: 9.49 µM; GI50 [9]: 6.74 µM; TGI [10]: 49.9 µM; TGI [11]: 113 µM; GI50 [6]: 11.5 µM; GI50 [7]: 12.8 µM
O=C(O)/C(=C\c1ccccc1Cl)S(=O)(=O)c1ccccc1	> 100 µM	> 100 µM	> 100 µM	> 100 µM	> 100 µM	–	> 100 µM	–	TGI [5]: > 100 µM
CC(=O)[C-](C(C)=O)c1ccccc1.CC(=O)[C-](C(C)=O)c1ccccc1.CC[O-].CC[O-].[Ti+4]	–	–	> 100 µM	–	–	–	–	–	GI50 [3]: > 100 µM
COc1ccc(Cl)cc1NC(=O)c1cccc([N+](=O)[O-])c1O	–	8.79 µM	89.9 µM	> 100 µM	> 100 µM	–	–	> 100 µM	–
CCCCCCCCCCCC(=O)c1c(O)cccc1O	34 µM	31 µM	48.5 µM	34.5 µM	43.9 µM	32.4 µM	34 µM	–	TGI [5]: 35.5 µM
